Test results taken from ChEMBL document CHEMBL1201862, “PubChem BioAssay data set” (2004).
Values belong to the molecule of their own block, whether it stands above or below them. Calls of active or inactive are those of the source.

Key:
Trypsin = Trypsin (Sus scrofa, UniProt P00761); assay: trypsin protease activity blockade – biochemical, quenched peptide fluorescence, cherry-pick, selectivity assay for Rce1 protease inhibitor project, dose response (AID 488789)
CAAX prenyl protease 2 = CAAX prenyl protease 2 (Homo sapiens, UniProt Q9Y256); assay: inhibition of Ras-converting CAAX protease Rce1 – biochemical, yeast membranes, quenched-peptide fluorescence, cherry-pick, dose response (AID 588849)
[1] = molecular target: Voltage-gated inwardly rectifying potassium channel KCNH2 (Homo sapiens, UniProt Q12809); conditions: Potency;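 also: confirmatory quantitative high-throughput screen measuring inhibition of hERG channel activity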
BJ [2] = assay: BJ-TERT fibroblast viability loss – cell-based, RAS-independent, luminescence, dose response (AID 1933); assay type: functional; conditions: Homo sapiens
BJ [3] = assay: cells; assay type: functional, cell-based; conditions: Homo sapiens
BJ [4] = assay: BJ-TERT-LT-ST fibroblast viability loss – cell-based, RAS-independent, luminescence, dose response (AID 1935); assay type: functional; conditions: Homo sapiens;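 also: BJ fibroblasts immortalized with TERT plus LT and ST oncogenes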
[5] = DRD fibroblast viability loss – cell-based, non-viral oncogenic, luminescence, dose response (AID 1934); assay type: functional; conditions: Homo sapiens
[6] = molecular target: T1, Heat shock factor protein 1 (Mus musculus, UniProt P38532); assay: enhancement of HSF1-driven luciferase signal – cell-based, NIH3T3, luminescence, dose retest, confirmation (AID 435004); assay type: functional;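 also: stress induced by proteasome inhibitor MG132 added 30 min after compound; luciferase reporter driven by HSF1 response element in NIH3T3 cells; actives raise luminescence as potentiators of the MG132 stress response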
T1 sequence (P38532 whole entry): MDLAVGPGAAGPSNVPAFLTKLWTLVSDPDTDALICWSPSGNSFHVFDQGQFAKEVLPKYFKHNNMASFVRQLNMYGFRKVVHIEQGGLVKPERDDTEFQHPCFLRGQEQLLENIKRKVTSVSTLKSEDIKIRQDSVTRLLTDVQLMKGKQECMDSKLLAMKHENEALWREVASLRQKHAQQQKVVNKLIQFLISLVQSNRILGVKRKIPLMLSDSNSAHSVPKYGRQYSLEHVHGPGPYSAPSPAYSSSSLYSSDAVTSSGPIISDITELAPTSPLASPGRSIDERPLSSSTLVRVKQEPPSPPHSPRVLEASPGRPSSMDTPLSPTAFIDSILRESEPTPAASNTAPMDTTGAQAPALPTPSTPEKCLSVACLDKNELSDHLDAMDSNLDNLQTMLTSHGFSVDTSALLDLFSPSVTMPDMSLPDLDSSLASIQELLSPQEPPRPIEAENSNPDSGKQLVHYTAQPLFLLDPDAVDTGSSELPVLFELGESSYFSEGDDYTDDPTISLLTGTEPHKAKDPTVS

[7] = molecular target: T2, Microphthalmia-associated transcription factor (Homo sapiens, UniProt O75030); assay: reducers of TRPM1 reporter luminescence, concentration series – cell-based, SK-MEL-5, cherry-picked, set 3, MITF inhibitor project, dose response (AID 493073); assay type: functional;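 also: SK-MEL-5 melanoma cells with luciferase driven by the MITF target TRPM1 promoter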
T2 sequence (O75030 whole entry): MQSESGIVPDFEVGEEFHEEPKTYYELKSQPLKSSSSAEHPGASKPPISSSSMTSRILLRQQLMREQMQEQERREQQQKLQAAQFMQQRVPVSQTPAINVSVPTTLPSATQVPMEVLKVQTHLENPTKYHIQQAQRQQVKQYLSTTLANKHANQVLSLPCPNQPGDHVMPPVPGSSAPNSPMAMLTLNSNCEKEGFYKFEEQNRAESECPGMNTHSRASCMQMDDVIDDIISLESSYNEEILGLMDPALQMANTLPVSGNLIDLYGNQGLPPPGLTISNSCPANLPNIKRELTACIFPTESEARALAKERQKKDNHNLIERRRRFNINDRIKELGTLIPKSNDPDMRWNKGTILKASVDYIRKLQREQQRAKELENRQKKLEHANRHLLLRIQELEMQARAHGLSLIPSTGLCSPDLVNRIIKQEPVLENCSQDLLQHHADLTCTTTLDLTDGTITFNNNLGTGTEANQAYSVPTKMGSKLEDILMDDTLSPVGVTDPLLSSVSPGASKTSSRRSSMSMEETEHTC

HEK293 [8] = assay: cells; conditions: Homo sapiens
HEK293 [9] = assay: cells; conditions: Homo sapiens; remark: listed apart in the source
HeLa = assay: ATP-based viability loss in HeLa cells – cell-based, CellTiter-Glo luminescence, cherry-pick samples, cytotoxicity control for MITF activator project, dose response (AID 540259); assay type: functional; conditions: Homo sapiens
Tumor necrosis factor = Tumor necrosis factor (Homo sapiens, UniProt P01375); assay: analog potency on TNFa NF-kB signaling – cell-based, revised, SAR follow-up (AID 2337); assay type: functional
[10] = molecular target: Nucleotide-binding oligomerization domain-containing protein 1 (Homo sapiens, UniProt Q9Y239); assay: blockers of NOD1 pathway activity – revised, SAR follow-up (AID 2333); assay type: functional
HEK293 [11] = assay: cells; conditions: Homo sapiens; remark: listed apart in the source
Cytochrome P450 2D6 = Cytochrome P450 2D6 (Homo sapiens, UniProt P10635);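 also: CYP2D6 member of a cytochrome P450 panel assay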
[12] = molecular target: T3, Sentrin-specific protease 8 (Homo sapiens, UniProt Q96LD8); assay: inhibition of human SENP8 cleavage activity – biochemical, luminescence, SAR follow-up (AID 504501); assay type: functional
T3 sequence (Q96LD8 whole entry): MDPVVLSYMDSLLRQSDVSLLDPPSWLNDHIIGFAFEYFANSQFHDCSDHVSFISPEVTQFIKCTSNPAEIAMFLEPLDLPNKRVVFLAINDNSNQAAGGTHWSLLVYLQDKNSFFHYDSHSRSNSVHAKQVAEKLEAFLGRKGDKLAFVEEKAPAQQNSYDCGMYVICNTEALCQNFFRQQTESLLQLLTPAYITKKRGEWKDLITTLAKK

Caspase-3 = molecular target: T4, Caspase-3 (Homo sapiens, UniProt P42574); assay: SAR Analysis of small molecule inhibitors of Sentrin-specific proteases (SENPs) using a Caspase-3 Selectivity assay. [Related pubchem assays (depositor defined):AID2540, AID2599, AID434973, AID489001]; assay type: functional
T4 sequence (P42574 whole entry): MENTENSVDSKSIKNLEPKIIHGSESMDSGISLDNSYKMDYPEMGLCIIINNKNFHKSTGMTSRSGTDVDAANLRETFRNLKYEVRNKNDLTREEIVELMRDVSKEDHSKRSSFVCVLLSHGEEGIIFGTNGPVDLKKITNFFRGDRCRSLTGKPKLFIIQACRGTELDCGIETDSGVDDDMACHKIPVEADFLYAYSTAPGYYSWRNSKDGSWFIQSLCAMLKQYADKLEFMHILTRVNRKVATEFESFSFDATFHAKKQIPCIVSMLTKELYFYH

[13] = molecular target: T5, Sentrin-specific protease 6 (Homo sapiens, UniProt Q9GZR1); assay: SAR Analysis of small molecule inhibitors of Sentrin-specific protease 6 (SENP6) using a Luminescent assay. [Related pubchem assays (depositor defined):AID2582, AID2599]; assay type: functional
T5 sequence (Q9GZR1 whole entry): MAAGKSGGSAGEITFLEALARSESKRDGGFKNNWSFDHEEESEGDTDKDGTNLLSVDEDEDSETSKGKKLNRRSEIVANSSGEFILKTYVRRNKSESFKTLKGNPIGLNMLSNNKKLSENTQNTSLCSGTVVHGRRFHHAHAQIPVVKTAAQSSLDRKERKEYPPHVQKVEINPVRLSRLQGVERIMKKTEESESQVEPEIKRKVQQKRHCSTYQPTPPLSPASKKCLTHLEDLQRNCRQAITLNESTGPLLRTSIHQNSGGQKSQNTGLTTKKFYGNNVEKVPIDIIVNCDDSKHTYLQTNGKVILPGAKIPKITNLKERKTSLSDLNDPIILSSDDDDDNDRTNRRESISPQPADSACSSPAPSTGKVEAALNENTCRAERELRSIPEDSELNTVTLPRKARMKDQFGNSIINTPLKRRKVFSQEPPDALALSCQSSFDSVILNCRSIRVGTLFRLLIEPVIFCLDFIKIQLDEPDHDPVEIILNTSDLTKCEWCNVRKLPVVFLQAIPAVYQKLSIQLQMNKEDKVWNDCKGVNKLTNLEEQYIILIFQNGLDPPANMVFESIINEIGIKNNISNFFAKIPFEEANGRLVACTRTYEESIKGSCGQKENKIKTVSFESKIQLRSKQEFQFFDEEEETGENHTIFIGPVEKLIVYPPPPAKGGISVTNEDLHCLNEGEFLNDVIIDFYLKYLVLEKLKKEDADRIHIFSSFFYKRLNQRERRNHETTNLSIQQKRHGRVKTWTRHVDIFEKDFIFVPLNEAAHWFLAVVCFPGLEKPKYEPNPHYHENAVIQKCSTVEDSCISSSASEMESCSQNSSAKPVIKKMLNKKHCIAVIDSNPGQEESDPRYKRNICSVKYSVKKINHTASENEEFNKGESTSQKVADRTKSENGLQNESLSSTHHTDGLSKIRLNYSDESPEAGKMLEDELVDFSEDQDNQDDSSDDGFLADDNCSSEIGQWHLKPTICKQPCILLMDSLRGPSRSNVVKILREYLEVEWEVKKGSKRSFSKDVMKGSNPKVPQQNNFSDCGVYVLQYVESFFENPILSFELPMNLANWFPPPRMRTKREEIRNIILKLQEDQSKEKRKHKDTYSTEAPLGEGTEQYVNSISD

[14] = molecular target: T6, Sentrin-specific protease 7 (Homo sapiens, UniProt Q9BQF6); assay: inhibition of human SENP7 cleavage activity – biochemical, luminescence, SAR follow-up (AID 504497); assay type: functional
T6 sequence (Q9BQF6 whole entry): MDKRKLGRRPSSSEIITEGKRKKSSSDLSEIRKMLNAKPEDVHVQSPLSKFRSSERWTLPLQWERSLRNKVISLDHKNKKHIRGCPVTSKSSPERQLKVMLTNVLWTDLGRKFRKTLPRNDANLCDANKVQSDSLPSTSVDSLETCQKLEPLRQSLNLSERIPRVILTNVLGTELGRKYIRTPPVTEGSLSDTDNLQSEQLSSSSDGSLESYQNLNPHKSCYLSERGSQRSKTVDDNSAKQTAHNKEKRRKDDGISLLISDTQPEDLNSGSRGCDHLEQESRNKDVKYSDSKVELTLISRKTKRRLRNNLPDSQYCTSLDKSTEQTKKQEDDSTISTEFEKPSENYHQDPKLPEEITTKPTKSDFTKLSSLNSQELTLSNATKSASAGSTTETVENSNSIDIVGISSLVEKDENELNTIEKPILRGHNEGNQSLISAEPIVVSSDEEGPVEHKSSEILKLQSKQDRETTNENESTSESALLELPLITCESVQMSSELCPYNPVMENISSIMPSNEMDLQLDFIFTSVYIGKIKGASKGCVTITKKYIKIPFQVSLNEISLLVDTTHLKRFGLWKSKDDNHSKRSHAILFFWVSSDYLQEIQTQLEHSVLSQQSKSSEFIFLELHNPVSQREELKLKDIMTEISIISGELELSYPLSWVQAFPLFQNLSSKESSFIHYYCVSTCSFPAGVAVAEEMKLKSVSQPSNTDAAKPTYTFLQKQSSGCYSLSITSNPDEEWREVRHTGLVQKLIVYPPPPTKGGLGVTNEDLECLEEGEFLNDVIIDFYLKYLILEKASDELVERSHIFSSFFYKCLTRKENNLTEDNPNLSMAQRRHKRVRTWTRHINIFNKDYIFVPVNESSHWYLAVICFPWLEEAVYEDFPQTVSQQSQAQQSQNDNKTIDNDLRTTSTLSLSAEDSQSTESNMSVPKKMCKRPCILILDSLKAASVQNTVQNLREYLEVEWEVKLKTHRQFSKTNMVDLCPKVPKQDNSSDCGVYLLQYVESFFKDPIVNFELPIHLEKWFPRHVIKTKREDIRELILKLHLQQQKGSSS

Sequence of Cytochrome P450 2D6 (P10635 whole entry): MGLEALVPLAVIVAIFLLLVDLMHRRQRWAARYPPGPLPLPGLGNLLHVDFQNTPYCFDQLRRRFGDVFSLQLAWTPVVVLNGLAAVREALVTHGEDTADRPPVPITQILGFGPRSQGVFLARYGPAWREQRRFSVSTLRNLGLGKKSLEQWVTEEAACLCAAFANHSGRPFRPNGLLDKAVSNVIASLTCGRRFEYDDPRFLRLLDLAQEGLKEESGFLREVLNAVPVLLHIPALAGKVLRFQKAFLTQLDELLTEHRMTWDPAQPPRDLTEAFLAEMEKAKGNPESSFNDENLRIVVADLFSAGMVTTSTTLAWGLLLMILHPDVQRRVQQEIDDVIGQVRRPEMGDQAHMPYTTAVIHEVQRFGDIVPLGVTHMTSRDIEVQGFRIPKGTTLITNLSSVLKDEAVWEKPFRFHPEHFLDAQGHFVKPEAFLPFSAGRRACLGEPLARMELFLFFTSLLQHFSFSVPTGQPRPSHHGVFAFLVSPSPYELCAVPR
Sequence of Trypsin (P00761 whole entry): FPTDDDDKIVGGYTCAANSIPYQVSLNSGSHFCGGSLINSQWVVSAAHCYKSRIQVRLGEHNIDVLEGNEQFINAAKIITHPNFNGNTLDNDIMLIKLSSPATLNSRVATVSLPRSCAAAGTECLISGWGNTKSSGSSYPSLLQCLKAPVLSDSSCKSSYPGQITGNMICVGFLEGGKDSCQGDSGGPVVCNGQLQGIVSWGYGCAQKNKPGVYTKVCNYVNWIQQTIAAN
Sequence of CAAX prenyl protease 2 (Q9Y256 whole entry): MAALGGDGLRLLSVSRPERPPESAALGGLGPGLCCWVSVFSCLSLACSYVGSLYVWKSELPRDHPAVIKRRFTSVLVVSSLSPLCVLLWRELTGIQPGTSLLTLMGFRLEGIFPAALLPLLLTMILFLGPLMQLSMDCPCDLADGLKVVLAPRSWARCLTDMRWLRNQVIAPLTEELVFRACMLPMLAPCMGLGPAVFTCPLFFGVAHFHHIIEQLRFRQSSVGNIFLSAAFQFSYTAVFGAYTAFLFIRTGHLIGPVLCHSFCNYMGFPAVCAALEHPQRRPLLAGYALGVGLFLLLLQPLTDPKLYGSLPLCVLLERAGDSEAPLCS
Sequence of Nucleotide-binding oligomerization domain-containing protein 1 (Q9Y239 whole entry, the tested form may be a part): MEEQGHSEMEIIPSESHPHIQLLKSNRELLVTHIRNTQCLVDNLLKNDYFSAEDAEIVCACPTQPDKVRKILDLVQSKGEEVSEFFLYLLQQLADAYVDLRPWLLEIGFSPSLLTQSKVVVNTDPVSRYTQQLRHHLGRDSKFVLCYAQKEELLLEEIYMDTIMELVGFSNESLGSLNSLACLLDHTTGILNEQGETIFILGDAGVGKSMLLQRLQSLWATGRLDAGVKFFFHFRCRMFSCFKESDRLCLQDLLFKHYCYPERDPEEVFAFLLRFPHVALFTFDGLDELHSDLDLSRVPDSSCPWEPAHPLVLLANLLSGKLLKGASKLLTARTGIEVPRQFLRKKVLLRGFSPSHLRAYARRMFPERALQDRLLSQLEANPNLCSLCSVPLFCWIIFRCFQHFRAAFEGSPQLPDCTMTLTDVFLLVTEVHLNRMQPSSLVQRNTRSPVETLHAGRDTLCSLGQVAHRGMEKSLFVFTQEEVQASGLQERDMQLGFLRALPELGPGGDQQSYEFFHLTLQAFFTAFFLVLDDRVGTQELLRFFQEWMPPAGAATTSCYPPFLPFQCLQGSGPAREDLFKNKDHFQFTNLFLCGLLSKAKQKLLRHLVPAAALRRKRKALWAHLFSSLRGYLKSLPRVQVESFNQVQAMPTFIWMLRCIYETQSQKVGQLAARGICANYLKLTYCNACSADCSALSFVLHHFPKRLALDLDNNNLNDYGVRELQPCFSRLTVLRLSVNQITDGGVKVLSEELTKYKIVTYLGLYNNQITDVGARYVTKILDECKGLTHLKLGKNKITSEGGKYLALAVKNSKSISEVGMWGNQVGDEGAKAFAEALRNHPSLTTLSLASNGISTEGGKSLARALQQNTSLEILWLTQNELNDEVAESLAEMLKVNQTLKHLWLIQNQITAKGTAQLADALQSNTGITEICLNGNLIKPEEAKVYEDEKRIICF
Sequence of Tumor necrosis factor (P01375 whole entry, the tested form may be a part): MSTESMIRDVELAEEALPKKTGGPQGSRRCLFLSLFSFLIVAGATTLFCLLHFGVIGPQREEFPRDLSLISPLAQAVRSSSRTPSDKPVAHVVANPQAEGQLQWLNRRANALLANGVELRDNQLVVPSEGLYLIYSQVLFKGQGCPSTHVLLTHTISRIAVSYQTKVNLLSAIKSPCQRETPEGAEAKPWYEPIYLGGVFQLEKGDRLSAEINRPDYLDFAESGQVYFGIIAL
Sequence of Voltage-gated inwardly rectifying potassium channel KCNH2 (Q12809 whole entry): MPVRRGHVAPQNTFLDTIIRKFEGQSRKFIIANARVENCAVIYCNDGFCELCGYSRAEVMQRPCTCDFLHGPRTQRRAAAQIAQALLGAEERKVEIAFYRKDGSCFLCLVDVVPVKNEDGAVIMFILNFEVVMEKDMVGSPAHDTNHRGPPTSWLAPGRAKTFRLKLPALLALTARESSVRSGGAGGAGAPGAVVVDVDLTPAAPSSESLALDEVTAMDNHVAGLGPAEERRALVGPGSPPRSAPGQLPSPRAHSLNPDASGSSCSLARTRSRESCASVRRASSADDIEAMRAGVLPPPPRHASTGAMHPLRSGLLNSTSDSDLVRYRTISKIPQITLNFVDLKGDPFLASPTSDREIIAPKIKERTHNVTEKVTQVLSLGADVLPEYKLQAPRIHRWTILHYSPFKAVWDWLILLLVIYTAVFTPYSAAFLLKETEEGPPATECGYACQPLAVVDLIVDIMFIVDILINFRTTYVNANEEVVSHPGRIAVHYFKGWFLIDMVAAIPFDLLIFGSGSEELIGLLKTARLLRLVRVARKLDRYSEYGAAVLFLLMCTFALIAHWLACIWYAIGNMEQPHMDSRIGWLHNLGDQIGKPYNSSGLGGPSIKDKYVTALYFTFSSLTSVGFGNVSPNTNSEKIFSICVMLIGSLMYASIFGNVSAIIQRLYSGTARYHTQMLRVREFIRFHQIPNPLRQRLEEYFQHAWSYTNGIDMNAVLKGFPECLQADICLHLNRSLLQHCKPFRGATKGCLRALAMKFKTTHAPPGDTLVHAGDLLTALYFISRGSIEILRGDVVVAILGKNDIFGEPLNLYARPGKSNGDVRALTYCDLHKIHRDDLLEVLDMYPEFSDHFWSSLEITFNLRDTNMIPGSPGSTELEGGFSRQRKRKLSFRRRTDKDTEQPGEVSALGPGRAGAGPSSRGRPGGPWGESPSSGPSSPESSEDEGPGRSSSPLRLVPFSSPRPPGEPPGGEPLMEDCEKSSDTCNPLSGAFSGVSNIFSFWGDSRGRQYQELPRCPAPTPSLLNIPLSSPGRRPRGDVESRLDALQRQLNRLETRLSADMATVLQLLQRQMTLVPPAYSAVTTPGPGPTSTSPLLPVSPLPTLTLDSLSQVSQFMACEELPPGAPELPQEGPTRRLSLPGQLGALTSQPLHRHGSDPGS

AC50 (Trypsin): 5.25 µM (active)
AC50 (CAAX prenyl protease 2): 2.48 µM (active)
SMILES: COc1ccccc1Oc1c(C)oc2c(CN3CCN(CCO)CC3)c(O)ccc2c1=O

SMILES: N=C(N)SCCc1cccc(CCSC(=N)N)c1
AC50 [1]: 20 µM (inconclusive)

SMILES: CN(C)c1nc(C=C(C#N)C#N)c(Cl)n1-c1ccc(F)cc1
EC50 (BJ [2]): 4.83 µM (active)
EC50 (BJ [3]): 5 µM (active)
EC50 (BJ [4]): 5.12 µM (inconclusive)
EC50 [5]: 4.24 µM (active)
EC50 [6]: 27.8 µM (active)
AC50 [7]: 3.92 µM (active)
EC50 (HEK293 [8]): > 59.6 µM (inactive)
EC50 (HEK293 [9]): > 59.6 µM (inactive)

SMILES: CC(c1ccccc1)c1nnc(NC(=O)Nc2ccccc2F)s1 (stereo not given)
AC50 (HeLa): 52.5 µM (active)

SMILES: Cc1ccc(N2CCN(S(=O)(=O)c3ccc4c(c3)CC(C)N4C(=O)C3CC3)CC2)cc1 (stereo not given)
IC50 (Tumor necrosis factor): > 20 µM (inactive)
IC50 [10]: > 20 µM (inactive)
IC50 (HEK293 [11]): > 20 µM (inactive)

AC50 (Cytochrome P450 2D6): inconclusive
SMILES: NCCCc1c(-c2ccccc2)nc(N)[nH]c1=O

IC50 (Caspase-3): > 99 µM (inactive)
IC50 [13]: > 99 µM (inactive)
IC50 [14]: 71.3 µM (active)
SMILES: Nc1ccccc1-c1noc(/C=C/c2ccccc2Cl)n1
IC50 [12]: > 99 µM (inactive)
